For this assay, the system named is rat glima cells (C6). The assay can be described thus: Cytotoxicity test (WST-8). The note with it: 48 hours culture with boron agent, WST-8 absorbance at 450 nm. It is filed as cell-based. The protocol: Using a 96-well microplate, rat glima cells (C6) were seeded at a density of 1.5×10^4 cells/ml per well and then cultured at room temperature (37° C., 5% CO2) for 16 hours. The culture fluid was taken out by suction and the culture fluids containing boron agents at various concentrations obtained in the Examples were added to respective wells in an amount of […] each. After culturing at room temperature (37° C., 5% CO2) for 48 hours, the culture fluid was taken out by suction, […] portions of WST-8 solution were added respectively, and culture was further carried out at room temperature (37° C., 5% CO2) for 4 hours. Using a microplate reader, the absorbance at a wavelength of 450 nm (reference wavelength: 655 nm) was measured and the absorbance of wells not containing cells was employed as background control, to determine each IC50 value.

In turn, “1-amino-4-[(undecahydrododecaboranyl-thio)methyl]cyclohexanone-1-carboxylic acid disodium salt [cis-ACHC-BSH]” displayed a concentration for half-maximal inhibition (IC50) of less than 300 µM.
In the case of `N[C@@H](Cc1ccc(B(O)O)cc1)C(=O)O` [L-BPA, 4-borono-L-phenylalanine, reference compound], the concentration for half-maximal inhibition (IC50) (Rattus norvegicus) was more than 2000 µM.
For “cis-1-amino-3-(dodecaboranylthiomethyl)cyclobutanecarboxylic acid trisodium salt [cis-ACBC-BSH]”, the IC50 was 2500 µM.
Consider “trans-1-amino-3-(dodecaboranylthiomethyl)cyclobutane-carboxylic acid trisodium salt [trans-ACBC-BSH]”, for which 2100 µM corresponded to half-maximal inhibition (IC50).

These data come from US8907128B2, “Boron compound with amino acid skeleton containing cyclo ring-type ring” (Stella Pharma Corporation, priority 2010, dated 2014).
